Reference: PubChem BioAssay AID2060907 (Molecular Pharmacology Branch, DTP, NCI, 2025)
pIC50: −log10 of the molar value. “And” between values parts separate entries of the source, which are not always exact repeats. Equal values may be shown once. Each block holds one compound with its values, some of them ahead of it.

Tested on: 388556-164-R-J1-PDC complex spheroid viability
Experiment: Anticancer human tumor 388556-164-R-J1-PDC patient-derived colon adenocarcinoma cell line growth inhibition [RAS]
Conditions: for viability, T/C: stronger effect = lower value
In short: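 Multi-cell-type spheroids: tumor cells plus HUVEC endothelial cells and mesenchymal stem cells. RAS-pathway inhibitors were combined with targeted agents, each dosed in half-log steps down from clinical Cmax, or from 10 microM when Cmax was unknown.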
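Further: spheroids exposed to compound for 7 days before readout.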
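Wherever viability, T/C is given: 100% = DMSO vehicle control luminescence.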

pIC50 (curve of first compound, second compound 0.0316 µM): 6.77 | pIC50 (curve of first compound, second compound 0.1 µM): 6.71 | pIC50 (curve of first compound, second compound 0.316 µM): 6.87 | pIC50 (curve of first compound, second compound 1 µM): 6.98 | pIC50 (curve of first compound, second compound 3.16 µM): 7.07 | pIC50 (curve of first compound, second compound 10 µM): 7.62
Compound: O=C(c1ccc(F)c(F)c1Nc1ccc(I)cc1F)N1CC(O)([C@@H]2CCCCN2)C1 + C#Cc1c(F)ccc2cc(O)cc(-c3ncc4c(N5CC6CCC(C5)N6)nc(OCC56CCCN5CC(F)C6)nc4c3F)c12
viability, T/C (second compound 0.0316 µM, first compound 0.00316 µM): 100% | viability, T/C (second compound 0.0316 µM, first compound 0.01 µM): 95.1% | viability, T/C (second compound 0.0316 µM, first compound 0.0316 µM): 79% | viability, T/C (second compound 0.0316 µM, first compound 0.1 µM): 61.6% | viability, T/C (second compound 0.0316 µM, first compound 0.316 µM): 37.2% | viability, T/C (second compound 0.0316 µM, first compound 1 µM): 22.1% | viability, T/C (second compound 0.1 µM, first compound 0.00316 µM): 99.7% | viability, T/C (second compound 0.1 µM, first compound 0.01 µM): 103% | viability, T/C (second compound 0.1 µM, first compound 0.0316 µM): 86% | viability, T/C (second compound 0.1 µM, first compound 0.1 µM): 66.1% | viability, T/C (second compound 0.1 µM, first compound 0.316 µM): 39.2% | viability, T/C (second compound 0.1 µM, first compound 1 µM): 22.2% | viability, T/C (second compound 0.316 µM, first compound 0.00316 µM): 100% | viability, T/C (second compound 0.316 µM, first compound 0.01 µM): 99.4% | viability, T/C (second compound 0.316 µM, first compound 0.0316 µM): 64.3% | viability, T/C (second compound 0.316 µM, first compound 0.1 µM): 59.3% | viability, T/C (second compound 0.316 µM, first compound 0.316 µM): 35.9% | viability, T/C (second compound 0.316 µM, first compound 1 µM): 17.2% | viability, T/C (second compound 1 µM, first compound 0.00316 µM): 89.8% | viability, T/C (second compound 1 µM, first compound 0.01 µM): 81.8% | viability, T/C (second compound 1 µM, first compound 0.0316 µM): 55.4% | viability, T/C (second compound 1 µM, first compound 0.1 µM): 60.5% | viability, T/C (second compound 1 µM, first compound 0.316 µM): 31.6% | viability, T/C (second compound 1 µM, first compound 1 µM): 16.9% | viability, T/C (second compound 3.16 µM, first compound 0.00316 µM): 79% | viability, T/C (second compound 3.16 µM, first compound 0.01 µM): 62.9% | viability, T/C (second compound 3.16 µM, first compound 0.0316 µM): 61.8% | viability, T/C (second compound 3.16 µM, first compound 0.1 µM): 51.5% | viability, T/C (second compound 3.16 µM, first compound 0.316 µM): 32.2% | viability, T/C (second compound 3.16 µM, first compound 1 µM): 15.7% | viability, T/C (second compound 10 µM, first compound 0.00316 µM): 56.7% | viability, T/C (second compound 10 µM, first compound 0.01 µM): 62.1% | viability, T/C (second compound 10 µM, first compound 0.0316 µM): 45.3% | viability, T/C (second compound 10 µM, first compound 0.1 µM): 31% | viability, T/C (second compound 10 µM, first compound 0.316 µM): 19.1% | viability, T/C (second compound 10 µM, first compound 1 µM): 17.1%

pIC50 (curve of compound): < 6.00
Compound: Nc1ccn(C2OC(CO)C(O)C2(F)F)c(=O)n1 (stereo unspecified)
viability, T/C (compound 0.00316 µM): 97.9% [middle of 4 runs] | viability, T/C (compound 0.01 µM): 93.1% [middle of 4 runs] | viability, T/C (compound 0.0316 µM): 81.8% [middle of 4 runs] | viability, T/C (compound 0.1 µM): 79% [middle of 4 runs] | viability, T/C (compound 0.316 µM): 74.7% [middle of 4 runs] | viability, T/C (compound 1 µM): 70.2% [middle of 4 runs]

pIC50 (curve of compound): < 5.00
Compound: CC1(O)CCCC1n1c(=O)c(C(F)F)cc2cnc(NC3CCN(S(C)(=O)=O)CC3)nc21 (stereo unspecified)
viability, T/C (compound 0.0316 µM): 92.6% and 106% and 83.1% | viability, T/C (compound 0.1 µM): 100% and 93% and 103% | viability, T/C (compound 0.316 µM): 107% and 99.9% and 99.4% | viability, T/C (compound 1 µM): 102% and 97.4% and 98% | viability, T/C (compound 3.16 µM): 111% and 105% (2×) | viability, T/C (compound 10 µM): 75.2% and 57.1% and 77.8%
